We go through 19 molecules from BindingDB's records for doi:10.1016/j.bmcl.2004.10.091 (Martin-Luther-University Halle-Wittenberg, 2005).

For orientation: IC50 means the concentration that inhibits the measured activity by half. Lower therefore signals inhibition by little substance.

Bounds are passed on as bounds.

Test [1] concerns the target Glycogen synthase kinase-3 beta (Rattus norvegicus, UniProt P18266). As to the kind of experiment: Kinase Inhibition Assay. Particulars: 30 °C. How it is done: (§1) Kinase activities were assayed in buffers containing substrate, enzyme, and inhibitor at 30 °C in the presence of 15 uM ATP/ [gamma-32P] ATP. 32P incorporation was measured with a scintillation counter. The IC50 is the inhibitor concentration, which inhibits 50% of kinase activity that catalyzes the transfer of the terminal phosphate from 32P labeled ATP to the substrate.

The target in test [2] is Cyclin-dependent kinase 1/G2/mitotic-specific cyclin-B (Marthasterias glacialis, UniProt P15206+Q9DGD3). As to the kind of experiment: Kinase Inhibition Assay. The note with it: pH 7.2; 30 °C. As to the method: as §1
Cyclin-dependent kinase 1/G2/mitotic-specific cyclin-B, sequence (Q9DGD3 whole entry): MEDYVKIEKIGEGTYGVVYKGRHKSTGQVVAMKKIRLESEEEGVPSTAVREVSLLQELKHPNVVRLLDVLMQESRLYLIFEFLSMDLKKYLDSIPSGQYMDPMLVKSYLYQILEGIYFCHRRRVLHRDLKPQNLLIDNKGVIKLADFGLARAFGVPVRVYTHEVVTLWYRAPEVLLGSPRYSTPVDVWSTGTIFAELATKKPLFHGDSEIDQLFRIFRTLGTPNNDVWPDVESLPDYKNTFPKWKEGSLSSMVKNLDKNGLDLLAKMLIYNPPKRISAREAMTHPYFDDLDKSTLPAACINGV
Cyclin-dependent kinase 1/G2/mitotic-specific cyclin-B, sequence (P15206 whole entry): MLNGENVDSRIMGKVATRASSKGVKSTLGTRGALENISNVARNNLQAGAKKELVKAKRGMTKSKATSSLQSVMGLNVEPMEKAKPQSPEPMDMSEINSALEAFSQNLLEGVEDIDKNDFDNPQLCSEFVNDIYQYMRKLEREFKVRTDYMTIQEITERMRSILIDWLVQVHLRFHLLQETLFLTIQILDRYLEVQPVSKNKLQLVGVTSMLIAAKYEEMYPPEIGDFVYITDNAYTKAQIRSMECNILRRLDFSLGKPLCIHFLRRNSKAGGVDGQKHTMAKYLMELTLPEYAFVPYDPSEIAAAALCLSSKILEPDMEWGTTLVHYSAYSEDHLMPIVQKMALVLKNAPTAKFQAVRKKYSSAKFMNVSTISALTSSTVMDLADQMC

Glycogen synthase kinase-3 beta, sequence (P18266 whole entry): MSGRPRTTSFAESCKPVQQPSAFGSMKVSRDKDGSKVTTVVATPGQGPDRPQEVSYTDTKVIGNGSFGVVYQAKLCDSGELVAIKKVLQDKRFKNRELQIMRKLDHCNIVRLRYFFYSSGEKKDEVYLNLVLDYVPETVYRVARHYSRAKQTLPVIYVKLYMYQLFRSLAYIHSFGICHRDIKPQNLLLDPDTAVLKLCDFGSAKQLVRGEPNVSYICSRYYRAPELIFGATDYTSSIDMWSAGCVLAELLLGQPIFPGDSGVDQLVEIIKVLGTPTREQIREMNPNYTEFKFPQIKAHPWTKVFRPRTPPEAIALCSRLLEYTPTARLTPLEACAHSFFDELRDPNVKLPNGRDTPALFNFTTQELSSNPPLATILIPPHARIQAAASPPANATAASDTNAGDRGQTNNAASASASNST

Take `Brc1cccc(-c2cc(NCc3ccncc3)n3nccc3n2)c1` [5-(3-bromophenyl)-N-(pyridin-4-ylmethyl)pyrazolo[1,5-a]pyrimidin-7-amine]: half-maximal inhibition in test [1] (IC50) was put at 0.96 µM.
On to `Oc1ccc2oc3ncc(Cl)c(-c4ccccc4)c3c2c1` [4-chloro-3-phenyl-8-oxa-6-azatricyclo[7.4.0.0^{2,7}]trideca-1(13),2(7),3,5,9,11-hexaen-12-ol], for which the IC50 in test [2] is above 100 µM.
As to `CN(C)S(=O)(=O)c1ccc(Nc2cc(N[C@H]3CC[C@H](N)CC3)nc3c(Cl)cnn23)cc1` [4-({5-[(4-aminocyclohexyl)amino]-3-chloropyrazolo[1,5-a]pyrimidin-7-yl}amino)-N,N-dimethylbenzene-1-sulfonamide], in test [1], 5.1 µM corresponded to half-maximal inhibition (IC50). That is a single-digit micromolar value.
On the same count and under the same terms, the result for `CC(C)c1cnn2c(Nc3ccc(S(=O)(=O)N(C)C)cc3)cc(NC3CCCC(N)C3)nc12` (centres undefined) [4-({5-[(3-aminocyclohexyl)amino]-3-(propan-2-yl)pyrazolo[1,5-a]pyrimidin-7-yl}amino)-N,N-dimethylbenzene-1-sulfonamide] reads above 50 µM.
Still for that read-out and setting: for `CC(C)COc1cc(Nc2ccc(S(C)(=O)=O)cc2)n2ncc(C(C)C)c2n1` [N-(4-methanesulfonylphenyl)-5-(2-methylpropoxy)-3-(propan-2-yl)pyrazolo[1,5-a]pyrimidin-7-amine] the value was 12 µM.
For `CCOc1cnc2oc3ccc(O)cc3c2c1-c1ccccc1` [4-ethoxy-3-phenyl-8-oxa-6-azatricyclo[7.4.0.0^{2,7}]trideca-1(13),2(7),3,5,9,11-hexaen-12-ol], the IC50 in test [2] is above 100 µM.
Take `CN(C)S(=O)(=O)c1ccc(Nc2cc(N[C@H]3CC[C@H](N)CC3)nc3c(C4CCCC4)cnn23)cc1` [4-({5-[(4-aminocyclohexyl)amino]-3-cyclopentylpyrazolo[1,5-a]pyrimidin-7-yl}amino)-N,N-dimethylbenzene-1-sulfonamide]: in test [1], the IC50 worked out at 22 µM.
Same read-out and setting: for `CC(C)c1cnn2c(Nc3ccc(S(=O)(=O)N(C)C)cc3)cc(O[C@H]3CC[C@H](N)CC3)nc12` [4-({5-[(4-aminocyclohexyl)oxy]-3-(propan-2-yl)pyrazolo[1,5-a]pyrimidin-7-yl}amino)-N,N-dimethylbenzene-1-sulfonamide] the value was 28 µM; for `CC(C)COc1cc(Nc2ccc(S(=O)(=O)N(C)C)cc2)n2ncc(C(C)C)c2n1` [N,N-dimethyl-4-{[5-(2-methylpropoxy)-3-(propan-2-yl)pyrazolo[1,5-a]pyrimidin-7-yl]amino}benzene-1-sulfonamide], 50 µM.
Molecule `CS(=O)(=O)c1ccc(Nc2cc(Cl)nc3ccnn23)cc1` [5-chloro-N-(4-methanesulfonylphenyl)pyrazolo[1,5-a]pyrimidin-7-amine] yielded a half-inhibitory concentration (IC50) in test [1] of 3.1 µM. Compared with the last molecule, the IC50 is about 16-fold lower.
Still for that read-out and setting: for `CN(C)S(=O)(=O)c1ccc(Nc2cc(N[C@H]3CC[C@H](N)CC3)nc3c(C#N)cnn23)cc1` [4-({5-[(4-aminocyclohexyl)amino]-3-cyanopyrazolo[1,5-a]pyrimidin-7-yl}amino)-N,N-dimethylbenzene-1-sulfonamide] the value was 0.46 µM; for `CN(C)S(=O)(=O)c1ccc(Nc2cc(N[C@H]3CC[C@H](N)CC3)nc3c(Br)cnn23)cc1Cl` [4-({5-[(4-aminocyclohexyl)amino]-3-bromopyrazolo[1,5-a]pyrimidin-7-yl}amino)-2-chloro-N,N-dimethylbenzene-1-sulfonamide], 8.7 µM; for `CC(C)c1cnn2c(Nc3ccc(S(=O)(=O)N(C)C)cc3)cc(N[C@H]3CC[C@H](N)CC3)nc12` [4-({5-[(4-aminocyclohexyl)amino]-3-(propan-2-yl)pyrazolo[1,5-a]pyrimidin-7-yl}amino)-N,N-dimethylbenzene-1-sulfonamide], 40 µM.
The same measure, in the same setting: for `CCN[C@H]1CC[C@H](Nc2cc(Nc3ccc(S(=O)(=O)N(C)C)cc3)n3ncc(C(C)C)c3n2)CC1` [4-[(5-{[4-(ethylamino)cyclohexyl]amino}-3-(propan-2-yl)pyrazolo[1,5-a]pyrimidin-7-yl)amino]-N,N-dimethylbenzene-1-sulfonamide] the value was above 50 µM.
Same read-out and setting: the result for `CC(C)c1cnn2c(Nc3ccc(S(C)(=O)=O)cc3)cc(Cl)nc12` [5-chloro-N-(4-methanesulfonylphenyl)-3-(propan-2-yl)pyrazolo[1,5-a]pyrimidin-7-amine] reads 11 µM.
In test [1], `CN(C)S(=O)(=O)c1ccc(Nc2cc(N[C@H]3CC[C@H](N)CC3)nc3c(Br)cnn23)cc1` [4-({5-[(4-aminocyclohexyl)amino]-3-bromopyrazolo[1,5-a]pyrimidin-7-yl}amino)-N,N-dimethylbenzene-1-sulfonamide] showed an IC50 of 3.4 µM. This IC50 lies about 3.2-fold lower than the previous one.
In the case of `Cc1cnc2oc3ccc(O)cc3c2c1-c1ccccc1` [4-methyl-3-phenyl-8-oxa-6-azatricyclo[7.4.0.0^{2,7}]trideca-1(13),2(7),3,5,9,11-hexaen-12-ol], the IC50 in test [2] was above 100 µM.
Turning to `CCN(CC)[C@H]1CC[C@H](Nc2cc(Nc3ccc(S(=O)(=O)N(C)C)cc3)n3ncc(C(C)C)c3n2)CC1` [4-[(5-{[4-(diethylamino)cyclohexyl]amino}-3-(propan-2-yl)pyrazolo[1,5-a]pyrimidin-7-yl)amino]-N,N-dimethylbenzene-1-sulfonamide], the half-inhibitory concentration (IC50) in test [1] is above 50 µM.
On the same count and under the same terms, the result for `N[C@H]1CC[C@H](Nc2cc(Nc3ccc(S(=O)(=O)c4ccccc4)cc3)n3ncc(Br)c3n2)CC1` [5-N-(4-aminocyclohexyl)-7-N-[4-(benzenesulfonyl)phenyl]-3-bromopyrazolo[1,5-a]pyrimidine-5,7-diamine] reads 5.3 µM.
